{"source": "patent US12370164B2", "about": "“Chlorogenic acid composition for promoting a healthy body weight” (Vidya Herbs, Inc., priority 2017, dated 2025)", "key": {"[1]": {"system": "Salmonella typhimurium TA 100", "format": "cell-based", "conditions": "TA 100, +s9, positive control, concentration not given", "source_text": "This assay helps to identify substances that can produce genetic damage that leads to gene mutations. Mutant strains of Salmonella typhimurium that are used in AMES assay cannot synthesize histidine, and are very susceptible to additional mutations because they lack the normal repair mechanisms found in bacteria. These mutant strains are more permeable than wild-type bacteria to external chemicals, including potential mutagens. In order for these cells to survive on a plate that lacks histidine, they must regain the ability to synthesize histidine by undergoing another mutation that corrects the original mutation that prevented the production of the missing enzyme. This type of mutation is known as a back mutation, or reversion, because this second mutation returns the mutant to the wild-type (prototrophic) phenotype. This reversion can happen spontaneously due to incorrect DNA replication or as the result of a mutagen.\nIn this assay specific strains of the bacteria Salmonella typhimurium (TA 98, TA 100) were used to detect mutations. […]\nBriefly, 0.5 ml of S9 mix (or 0.1 M phosphate buffer, pH 7.4), 0.1 ml of bacterial culture and 0.1 ml of test solution (or solvent) were added to each tube. […] After incubation for approximately 48 h the revertant colonies were counted."}, "[2]": {"system": "Salmonella typhimurium TA 98", "test": "Ames Salmonella mutagenicity test, strain TA 98", "format": "cell-based", "conditions": "TA 98, +s9, positive control, concentration not given"}, "[3]": {"test": "DPPH radical scavenging assay", "method": "The free radical scavenging capacity of the test sample was determined using DPPH scavenging assay. DPPH solution was prepared in 95% methanol. Freshly prepared DPPH solution was taken in test tubes and different concentration of test samples were added and incubated for 20 min. The absorbance was read at 517 nm using a spectrophotometer. Blank was prepared containing the same volume of reaction mixture without any tested samples. The percentage of scavenging was calculated using the formula: % Scavenging=Ac−As/Ac×100 Where AC was the absorbance of the control (blank) and AS was the absorbance in the presence of the composition (Braca et al., 2001). Results"}, "[4]": {"test": "Superoxide anion scavenging activity", "experimental": "Prepared all the solutions in this experiment using phosphate buffer (pH 7.4). Added 1 ml of NBT (156 μM), 1 ml of NADH (468 μM) and 3 ml of test samples to all test tubes. The reaction was started by adding 100 ml of PMS (60 μM) and incubated the mixture at 25° C. for 5 min followed by measurement of absorbance at 560 nm. The percentage of scavenging was calculated using formula: % Scavenging=Ac−As/Ac×100 Where AC was the absorbance of the control (blank) and As was the absorbance in the presence of the composition."}, "calf thymus DNA": {"system": "calf thymus DNA", "test": "Protective effect on DNA scission induced by hydroxyl radical", "method": "In this assay hydroxyl radicals are typically generated within a mixture of ascorbic acid, H2O2 and Fe3+-ethylenediaminetetracetic acid (EDTA); those radicals that are not scavenged by other components of the reaction mixture will eventually attack deoxyribose, thus degrading it into a series of fragments.\nThe experiment was conducted using calf thymus DNA. Briefly, the sample was dissolved in ethanol at 1 mg/mL. 50 μl of different concentration of sample was then separately taken into mini tubes followed by addition of 400 μL of phosphate buffer (0.2 mol/L, pH 7.4). Subsequently, 50 μL DNA sodium, 50 μL H2O2, 50 μL FeCl3 and 50 μL Na2EDTA (1 mmol/L) were added. The reaction was initiated by adding 50 μL ascorbic acid (18 mmol/L) and the total volume of the reaction mixture was adjusted to 800 μL with buffer. After incubation in a water bath at 55° C. for 20 min, the reaction was terminated by adding 250 μL TCA.\nThe color was then developed by addition of 150 μL of TBA and heating in an oven at 105° C. for 15 min. The mixture was cooled and absorbance was measured at 532 nm against the buffer (as blank). The percent of protection against DNA damage is expressed Protective effect %=(1−A/A0)×100 Where A0 is the absorbance of the mixture without sample, and A is the absorbance of the mixture with sample. Results"}}, "note": "Where “and” joins values, the source holds several entries; their conditions need not be identical. Equal entries are not always repeated.", "data": [{"smiles": "Nc1ccc2cc3ccccc3cc2c1", "note": "[2AF, 2-aminoanthracene]", "values": [{"measurement": "Revertant colonies/plate", "setting": "[1]", "result": "2737 ± 4.9", "unit": "colonies/plate"}, {"measurement": "Revertant colonies/plate", "setting": "[2]", "result": "1560 ± 3.53", "unit": "colonies/plate"}]}, {"smiles": "O=C1O[C@H]([C@@H](O)CO)C(O)=C1O", "note": "[Ascorbic acid]", "values": [{"measurement": "% inhibition (DPPH scavenging)", "setting": "[3]; 20 μg/ml", "result": 83.21, "unit": "%"}, {"measurement": "Absorbance @517 nm", "setting": "[3]; 20 μg/ml", "result": 0.046}, {"measurement": "% inhibition (DPPH scavenging)", "setting": "[3]; 40 μg/ml", "result": 90.88, "unit": "%"}, {"measurement": "Absorbance @517 nm", "setting": "[3]; 40 μg/ml", "result": 0.025}, {"measurement": "% inhibition (DPPH scavenging)", "setting": "[3]; 60 μg/ml", "result": 94.53, "unit": "%"}, {"measurement": "Absorbance @517 nm", "setting": "[3]; 60 μg/ml", "result": 0.015}, {"measurement": "% inhibition (DPPH scavenging)", "setting": "[3]; 80 μg/ml", "result": 94.89, "unit": "%"}, {"measurement": "Absorbance @517 nm", "setting": "[3]; 80 μg/ml", "result": 0.014}, {"measurement": "% inhibition (DPPH scavenging)", "setting": "[3]; 100 μg/ml", "result": 96.72, "unit": "%"}, {"measurement": "Absorbance @517 nm", "setting": "[3]; 100 μg/ml", "result": 0.009}, {"measurement": "% inhibition (DPPH scavenging)", "setting": "[3]; 100 μg/ml, listed as ascorbic acid", "result": 96.71, "unit": "%"}, {"measurement": "% inhibition (superoxide scavenging)", "setting": "[4]; 20 μg/ml", "result": 84.80, "unit": "%"}, {"measurement": "Absorbance @517 nm (superoxide scavenging)", "setting": "[4]; 20 μg/ml", "result": 0.038}, {"measurement": "% inhibition (superoxide scavenging)", "setting": "[4]; 40 μg/ml", "result": 85.20, "unit": "%"}, {"measurement": "Absorbance @517 nm (superoxide scavenging)", "setting": "[4]; 40 μg/ml", "result": 0.037}, {"measurement": "% inhibition (superoxide scavenging)", "setting": "[4]; 60 μg/ml", "result": 88.40, "unit": "%"}, {"measurement": "Absorbance @517 nm (superoxide scavenging)", "setting": "[4]; 60 μg/ml", "result": 0.029}, {"measurement": "% inhibition (superoxide scavenging)", "setting": "[4]; 80 μg/ml", "result": 89.20, "unit": "%"}, {"measurement": "Absorbance @517 nm (superoxide scavenging)", "setting": "[4]; 80 μg/ml", "result": 0.027}, {"measurement": "% inhibition (superoxide scavenging)", "setting": "[4]; 100 μg/ml", "result": 89.60, "unit": "%"}, {"measurement": "Absorbance @517 nm (superoxide scavenging)", "setting": "[4]; 100 μg/ml", "result": 0.026}]}, {"smiles": "COc1ccc(O)c(C(C)(C)C)c1", "note": "[BHA]", "values": [{"measurement": "% protective effect against DNA damage", "setting": "calf thymus DNA; 10 μg/ml", "result": "15.79 ± 0.89", "unit": "%"}, {"measurement": "% protective effect against DNA damage", "setting": "calf thymus DNA; 20 μg/ml", "result": "19.25 ± 1.09", "unit": "%"}, {"measurement": "% protective effect against DNA damage", "setting": "calf thymus DNA; 40 μg/ml", "result": "32.50 ± 2.12", "unit": "%"}, {"measurement": "% protective effect against DNA damage", "setting": "calf thymus DNA; 60 μg/ml", "result": "39.16 ± 0.33", "unit": "%"}, {"measurement": "% protective effect against DNA damage", "setting": "calf thymus DNA; 80 μg/ml", "result": "43.04 ± 0.29", "unit": "%"}, {"measurement": "% protective effect against DNA damage", "setting": "calf thymus DNA; 100 μg/ml", "result": "51.37% and 51.37 ± 4.06%"}]}]}
